Key:
[1] = biological target: Mer (phospho-Mer, MERTK-transfected 293A cells) (Homo sapiens (Human), UniProt Q12866); experiment: Mer autophosphorylation ELISA in transient transfected 293A cells (Example H); type: cell-based; conditions: cellular activity; Mer autophosphorylation ELISA in transient transfected 293A cells
How it was run: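 IC50 from 4-parameter logistic fit of phospho-Mer levels, quantified by ELISA against a phospho-Mer standard in lysates of MERTK-transfected 293A cells. Cells exposed 1 h to 8-point serial dilutions, serum-free, 0.3% DMSO; controls: DMSO (100%) and reference inhibitor (0%).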

[2] = biological target: Human MET (residues 956-1390) (Homo sapiens (Human), UniProt P08581); experiment: Human Met kinase assay, HTRF KinEase (Example D-2); type: biochemical; conditions: protocol of Example D-2 (other compounds); read-out: c-Met IC50
How it was run: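 IC50 values come from a 4-parameter logistic fit of the […] fluorescence ratio, set between DMSO (100%) and reference compound at 1 μM (0%). Reactions held MET 956-1390 at 0.1 ng/well, ATP at Km, biotinylated peptide, 5 mM MgCl2, 1 mM MnCl2, 1 mM DTT and 3% DMSO, and ran 40 min at room temperature before streptavidin-XL665/Eu-antibody detection.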

Sequence of Human MET (residues 956-1390) (P08581 956-1390): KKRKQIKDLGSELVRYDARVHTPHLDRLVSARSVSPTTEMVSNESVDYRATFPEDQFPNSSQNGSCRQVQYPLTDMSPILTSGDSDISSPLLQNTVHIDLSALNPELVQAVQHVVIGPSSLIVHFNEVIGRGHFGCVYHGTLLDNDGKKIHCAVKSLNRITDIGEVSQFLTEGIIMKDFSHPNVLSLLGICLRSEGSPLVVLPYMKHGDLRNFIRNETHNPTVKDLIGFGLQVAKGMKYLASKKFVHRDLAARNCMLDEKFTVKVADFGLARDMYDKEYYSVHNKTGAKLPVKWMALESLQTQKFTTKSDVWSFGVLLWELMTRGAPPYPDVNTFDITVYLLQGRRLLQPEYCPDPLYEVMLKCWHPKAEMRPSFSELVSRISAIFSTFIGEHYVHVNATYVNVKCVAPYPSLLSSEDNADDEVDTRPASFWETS
Sequence of Mer (phospho-Mer, MERTK-transfected 293A cells) (Q12866 21-999): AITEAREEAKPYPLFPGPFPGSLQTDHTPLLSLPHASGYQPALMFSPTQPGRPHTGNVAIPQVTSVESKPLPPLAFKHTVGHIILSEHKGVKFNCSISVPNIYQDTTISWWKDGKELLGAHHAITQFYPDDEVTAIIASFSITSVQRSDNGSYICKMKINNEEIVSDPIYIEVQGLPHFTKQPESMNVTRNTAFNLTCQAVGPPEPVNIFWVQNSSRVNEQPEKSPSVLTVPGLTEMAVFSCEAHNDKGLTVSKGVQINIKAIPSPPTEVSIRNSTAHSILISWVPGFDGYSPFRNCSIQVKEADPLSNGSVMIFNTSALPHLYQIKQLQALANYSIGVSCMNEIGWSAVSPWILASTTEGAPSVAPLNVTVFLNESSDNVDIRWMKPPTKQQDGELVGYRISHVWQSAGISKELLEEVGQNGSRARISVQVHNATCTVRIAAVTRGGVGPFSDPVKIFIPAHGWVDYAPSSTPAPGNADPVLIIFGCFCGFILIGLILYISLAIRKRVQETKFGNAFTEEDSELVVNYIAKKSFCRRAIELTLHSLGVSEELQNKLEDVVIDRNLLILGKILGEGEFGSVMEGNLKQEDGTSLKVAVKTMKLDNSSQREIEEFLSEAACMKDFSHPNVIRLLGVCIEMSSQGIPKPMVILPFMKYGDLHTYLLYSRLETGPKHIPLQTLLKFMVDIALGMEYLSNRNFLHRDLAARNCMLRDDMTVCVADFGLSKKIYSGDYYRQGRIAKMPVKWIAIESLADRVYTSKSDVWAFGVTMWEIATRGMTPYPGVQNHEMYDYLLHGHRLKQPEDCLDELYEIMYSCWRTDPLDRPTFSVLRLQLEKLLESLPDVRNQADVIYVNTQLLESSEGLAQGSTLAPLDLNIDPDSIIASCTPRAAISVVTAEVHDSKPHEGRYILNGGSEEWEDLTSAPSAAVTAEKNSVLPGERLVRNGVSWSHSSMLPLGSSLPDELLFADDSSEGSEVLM

SMILES	IC50 [1] [nM]	IC50 [2] [nM]
COc1cc2nccc(Oc3ccc(NC(=O)c4cn(-c5ccn(C)n5)cc(-c5ccc(F)cc5)c4=O)cc3F)c2nc1OC [Compound 53, N-[4-[(6,7-Dimethoxy-1,5-naphthyridin-4-yl)oxy]-3-fluorophenyl]-5-(4-fluorophenyl)-1-(1-methylpyrazol-3-yl)-4-oxopyridine-3-carboxamide]	< 100	< 100
Cc1cc(F)ccc1-c1c(C)n(C)cc(C(=O)Nc2ccc(Oc3ccnc4cc(C)c(F)nc34)c(F)c2)c1=O [Compound 429, N-[3-fluoro-4-[(6-fluoro-7-methyl-1,5-naphthyridin-4-yl)oxy]phenyl]-5-(4-fluoro-2-methylphenyl)-1,6-dimethyl-4-oxopyridine-3-carboxamide]	< 100	< 100
CNC(=O)c1cc2c(Oc3ccc(NC(=O)c4c5n(cc(-c6ccc(F)cc6)c4=O)CCC5)cc3F)ccnc2cc1OC [Compound 408, 4-[2-fluoro-4-[[6-(4-fluorophenyl)-7-oxo-2,3-dihydro-1H-indolizine-8-carbonyl]amino]phenoxy]-7-methoxy-N-methylquinoline-6-carboxamide]	< 100	< 100
CCc1cc2nccc(Oc3ccc(NC(=O)c4cnc(C)c(-c5ccc(F)cc5C)c4O)cc3F)c2nc1OC [Compound 421, N-[4-[(7-ethyl-6-methoxy-1,5-naphthyridin-4-yl)oxy]-3-fluorophenyl]-5-(4-fluoro-2-methylphenyl)-4-hydroxy-6-methylpyridine-3-carboxamide]	< 100	100 to 300
COc1cc2nccc(Oc3ccc(NC(=O)c4cc(C#N)c(C)n(-c5ccc(F)cc5)c4=O)cc3F)c2nc1OC [Compound 87, 5-Cyano-N-[4-[(6,7-dimethoxy-1,5-naphthyridin-4-yl)oxy]-3-fluorophenyl]-1-(4-fluorophenyl)-6-methyl-2-oxopyridine-3-carboxamide]	< 100	< 100
COCCOc1nc2c(Oc3ccc(NC(=O)c4cnc(C)c(-c5ccc(F)cc5)c4O)cc3F)ccnc2cc1C [Compound 436, N-[3-fluoro-4-[[6-(2-methoxyethoxy)-7-methyl-1,5-naphthyridin-4-yl]oxy]phenyl]-5-(4-fluorophenyl)-4-hydroxy-6-methylpyridine-3-carboxamide]	< 100	< 100
COc1cc2nccc(Oc3ccc(NC(=O)c4cnc(C)c(-c5ccc(F)cc5C)c4O)cc3)c2nc1OC(C)C [Compound 414, 5-(4-fluoro-2-methylphenyl)-4-hydroxy-N-[4-[(7-methoxy-6-propan-2-yloxy-1,5-naphthyridin-4-yl)oxy]phenyl]-6-methylpyridine-3-carboxamide]	< 100	< 100
COc1cc2nccc(Oc3ccc(NC(=O)c4cnc(CO)c(-c5ccc(F)cc5)c4O)cc3F)c2nc1OC [Compound 71, N-[4-[(6,7-Dimethoxy-1,5-naphthyridin-4-yl)oxy]-3-fluorophenyl]-5-(4-fluorophenyl)-4-hydroxy-6-(hydroxymethyl)pyridine-3-carboxamide]	< 100	< 100
COc1cc2nccc(Oc3ccc(NC(=O)c4cn(C)c(CO)c(-c5ccc(F)cc5)c4=O)cc3F)c2nc1OC [Compound 72, N-[4-[(6,7-Dimethoxy-1,5-naphthyridin-4-yl)oxy]-3-fluorophenyl]-5-(4-fluorophenyl)-6-(hydroxymethyl)-1-methyl-4-oxopyridine-3-carboxamide]	< 100	< 100
COc1ccc2nccc(Oc3ccc(NC(=O)c4cn(C5CC5)c(C)c(-c5ccc(F)cc5)c4=O)cc3F)c2n1 [Compound 435, 1-cyclopropyl-N-[3-fluoro-4-[(6-methoxy-1,5-naphthyridin-4-yl)oxy]phenyl]-5-(4-fluorophenyl)-6-methyl-4-oxopyridine-3-carboxamide]	< 100	< 100
COc1cc2nccc(Oc3ccc(NC(=O)c4c(C)nc(OC)c(-c5ccc(F)cc5)c4O)cc3F)c2nc1OC [Compound 442, N-[4-[(6,7-dimethoxy-1,5-naphthyridin-4-yl)oxy]-3-fluorophenyl]-5-(4-fluorophenyl)-4-hydroxy-6-methoxy-2-methylpyridine-3-carboxamide]	< 100	< 100
COc1cc2nccc(Oc3ccc(NC(=O)c4n[nH]c(C)c(-c5ccc(F)cc5C)c4=O)cc3F)c2nc1OC [Compound 90, N-[4-[(6,7-Dimethoxy-1,5-naphthyridin-4-yl)oxy]-3-fluorophenyl]-5-(4-fluoro-2-methylphenyl)-6-methyl-4-oxo-1H-pyridazine-3-carboxamide]	< 100	< 100
COc1ccc2nccc(Oc3ccc(NC(=O)c4ccc(C)n(-c5ccc(F)cc5C)c4=O)cc3F)c2n1 [Compound 85, N-[3-Fluoro-4-[(6-methoxy-1,5-naphthyridin-4-yl)oxy]phenyl]-1-(4-fluoro-2-methylphenyl)-6-methyl-2-oxopyridine-3-carboxamide]	< 100	100 to 300
COc1cc2nccc(Oc3ccc(NC(=O)c4cnc(C)c(-c5ccc(F)cc5C)c4O)cc3F)c2nc1OC [Compound 69, N-[4-[(6,7-Dimethoxy-1,5-naphthyridin-4-yl)oxy]-3-fluorophenyl]-5-(4-fluoro-2-methylphenyl)-4-hydroxy-6-methylpyridine-3-carboxamide]	< 100	< 100
C=Cc1cc2nccc(Oc3ccc(NC(=O)c4cnc(C)c(-c5ccc(F)cc5)c4O)cc3F)c2nc1OC [Compound 422, N-[4-[(7-ethenyl-6-methoxy-1,5-naphthyridin-4-yl)oxy]-3-fluorophenyl]-5-(4-fluorophenyl)-4-hydroxy-6-methylpyridine-3-carboxamide]	< 100	< 100
COCCOc1nc2c(Oc3ccc(NC(=O)c4cnc(C)c(-c5ccc(F)cc5)c4O)cc3F)ccnc2cc1OC [Compound 68, N-[3-Fluoro-4-[[7-methoxy-6-(2-methoxyethoxy)-1,5-naphthyridin-4-yl]oxy]phenyl]-5-(4-fluorophenyl)-4-hydroxy-6-methylpyridine-3-carboxamide]	< 100	< 100
COc1cc2nccc(Oc3ccc(NC(=O)c4cnc(C)c(-c5ccc(F)cc5)c4O)cc3F)c2nc1OCCCN1CCOCC1 [Compound 424, N-[3-fluoro-4-[[7-methoxy-6-(3-morpholin-4-ylpropoxy)-1,5-naphthyridin-4-yl]oxy]phenyl]-5-(4-fluorophenyl)-4-hydroxy-6-methylpyridine-3-carboxamide]	< 100	< 100
COc1cc2nccc(Oc3ccc(NC(=O)c4cn(-c5cnn(C(F)F)c5)cc(-c5ccc(F)cc5)c4=O)cc3F)c2nc1OC [Compound 60, 1-[1-(Difluoromethyl)pyrazol-4-yl]-N-[4-[(6,7-dimethoxy-1,5-naphthyridin-4-yl)oxy]-3-fluorophenyl]-5-(4-fluorophenyl)-4-oxopyridine-3-carboxamide]	< 100	< 100
COc1ccc2nccc(Oc3ccc(NC(=O)c4ccc(C)n(-c5ccc(F)cc5)c4=O)cc3F)c2n1 [Compound 84, N-[3-Fluoro-4-[(6-methoxy-1,5-naphthyridin-4-yl)oxy]phenyl]-1-(4-fluorophenyl)-6-methyl-2-oxopyridine-3-carboxamide]	< 100	< 100
COc1cc2nccc(Oc3ccc(NC(=O)c4cn(C)c(OC)c(-c5ccc(F)cc5)c4=O)cc3F)c2nc1OC [Compound 78, N-[4-[(6,7-Dimethoxy-1,5-naphthyridin-4-yl)oxy]-3-fluorophenyl]-5-(4-fluorophenyl)-6-methoxy-1-methyl-4-oxopyridine-3-carboxamide]	< 100	< 100
COc1cc2nccc(Oc3ccc(NC(=O)c4cn(CC(F)(F)F)c(C)c(-c5ccc(F)cc5)c4=O)cc3F)c2nc1OC [Compound 74, N-[4-[(6,7-Dimethoxy-1,5-naphthyridin-4-yl)oxy]-3-fluorophenyl]-5-(4-fluorophenyl)-6-methyl-4-oxo-1-(2,2,2-trifluoroethyl)pyridine-3-carboxamide]	< 100	< 100
COc1cnc2c(Oc3ccc(NC(=O)c4cnc(C)c(-c5ccc(F)cc5)c4O)cc3F)ccnc2c1 [Compound 64, N-[3-Fluoro-4-[(7-methoxy-1,5-naphthyridin-4-yl)oxy]phenyl]-5-(4-fluorophenyl)-4-hydroxy-6-methylpyridine-3-carboxamide]	< 100	< 100
Cc1cc2nccc(Oc3ccc(NC(=O)c4cnc(C)c(-c5ccc(F)cc5)c4O)cc3F)c2nc1F [Compound 426, N-[3-fluoro-4-[(6-fluoro-7-methyl-1,5-naphthyridin-4-yl)oxy]phenyl]-5-(4-fluorophenyl)-4-hydroxy-6-methylpyridine-3-carboxamide]	< 100	< 100
COc1cc2nccc(Oc3ccc(NC(=O)c4cn(C5(C(F)(F)F)CC5)cc(-c5ccc(F)cc5)c4=O)cc3F)c2nc1OC [Compound 59, N-[4-[(6,7-Dimethoxy-1,5-naphthyridin-4-yl)oxy]-3-fluorophenyl]-5-(4-fluorophenyl)-4-oxo-1-[1-(trifluoromethyl)cyclopropyl]pyridine-3-carboxamide]	< 100	< 100
COc1cc2nccc(Oc3ccc(NC(=O)c4cn(C(C)(C)C)cc(-c5ccc(F)cc5)c4=O)cc3F)c2nc1OC [Compound 48, 1-tert-Butyl-N-[4-[(6,7-dimethoxy-1,5-naphthyridin-4-yl)oxy]-3-fluorophenyl]-5-(4-fluorophenyl)-4-oxopyridine-3-carboxamide]	< 100	< 100

Source: patent publication US12371428B2 (Exelixis, Inc., priority 2019, dated 2025)
